Earlier results on one compound are cited in patent US7666888B2, “Substituted azole aromatic heterocycles as inhibitors of 11β-HSD-1” (Amgen Inc., priority 2006, dated 2010).

The subject of one data set is normal subjects. The note with it: ingestion.
In a further data set the test system is bone nodule formation. The note with it: glucocorticoid effect.

As for `CC1(C)[C@@H](OC(=O)CCC(=O)O)CC[C@]2(C)[C@H]3C(=O)C=C4[C@@H]5C[C@@](C)(C(=O)O)CC[C@]5(C)CC[C@@]4(C)[C@]3(C)CC[C@@H]12` [carbenoxolone], in the data set with normal subjects, the “reduce the intraocular pressure” value was 20%. In addition, in the data set on healthy human volunteers, the Hepatic insulin sensitivity entry was “improved”. The “negative effect on bone nodule formation” value in the data set on bone nodule formation is given as “blocked”.
